This note sets out measurements from patent publication US11242346B2, “Mechanistic target of rapamycin signaling pathway inhibitors and therapeutic applications thereof” (SUZHOU KINTOR PHARMACEUTICALS, INC., priority 2016, dated 2022).

The target of data set [1] is PI3Kα (Homo sapiens, UniProt P42336). Briefly: SelectScreen Profiling, Adapta kinase assay, PI3Kα. It is filed as biochemical. Conditions: 0.1 μM compound, ATP at Km, read-out: PI3Kα inh % @0.1 μM.
Data set [2] addresses mTOR (FRAP1) (Homo sapiens, UniProt P42345). Briefly: SelectScreen Profiling, Z'-LYTE kinase assay, mTOR (FRAP1). It is filed as biochemical. The following applies: 0.1 μM compound, ATP at Km, read-out: mTOR inh% @0.1 μM. An excerpt: (§1) Some of the example compounds were submitted to Life Technologies Corporation SelectScreen® Profiling Service to test their potency in inhibiting the kinase catalytic activities of mTOR, PI3Kα, VEGF2, FGFR1, HER1 (EGFR) and HER2. A concentration of ATP at the Km of the corresponding kinase was used for all assays. The mTOR (FRAP1), VEGF2, FGFR1, HER1 (EGFR) and HER2 assays used Z′-LYTE® technology. The PI3Kα assay used Adapta® technology. The symbol “inh %” as used herein generally refers to inhibition percentage.

For data set [3], the target named is VEGF2 (Homo sapiens, UniProt P35968). Briefly: SelectScreen Profiling, Z'-LYTE kinase assay, VEGF2. It is filed as biochemical. The following applies: 1 μM compound, ATP at Km, read-out: VEGF 2 inh % @1 μM.
VEGF2, sequence (P35968 20-1356): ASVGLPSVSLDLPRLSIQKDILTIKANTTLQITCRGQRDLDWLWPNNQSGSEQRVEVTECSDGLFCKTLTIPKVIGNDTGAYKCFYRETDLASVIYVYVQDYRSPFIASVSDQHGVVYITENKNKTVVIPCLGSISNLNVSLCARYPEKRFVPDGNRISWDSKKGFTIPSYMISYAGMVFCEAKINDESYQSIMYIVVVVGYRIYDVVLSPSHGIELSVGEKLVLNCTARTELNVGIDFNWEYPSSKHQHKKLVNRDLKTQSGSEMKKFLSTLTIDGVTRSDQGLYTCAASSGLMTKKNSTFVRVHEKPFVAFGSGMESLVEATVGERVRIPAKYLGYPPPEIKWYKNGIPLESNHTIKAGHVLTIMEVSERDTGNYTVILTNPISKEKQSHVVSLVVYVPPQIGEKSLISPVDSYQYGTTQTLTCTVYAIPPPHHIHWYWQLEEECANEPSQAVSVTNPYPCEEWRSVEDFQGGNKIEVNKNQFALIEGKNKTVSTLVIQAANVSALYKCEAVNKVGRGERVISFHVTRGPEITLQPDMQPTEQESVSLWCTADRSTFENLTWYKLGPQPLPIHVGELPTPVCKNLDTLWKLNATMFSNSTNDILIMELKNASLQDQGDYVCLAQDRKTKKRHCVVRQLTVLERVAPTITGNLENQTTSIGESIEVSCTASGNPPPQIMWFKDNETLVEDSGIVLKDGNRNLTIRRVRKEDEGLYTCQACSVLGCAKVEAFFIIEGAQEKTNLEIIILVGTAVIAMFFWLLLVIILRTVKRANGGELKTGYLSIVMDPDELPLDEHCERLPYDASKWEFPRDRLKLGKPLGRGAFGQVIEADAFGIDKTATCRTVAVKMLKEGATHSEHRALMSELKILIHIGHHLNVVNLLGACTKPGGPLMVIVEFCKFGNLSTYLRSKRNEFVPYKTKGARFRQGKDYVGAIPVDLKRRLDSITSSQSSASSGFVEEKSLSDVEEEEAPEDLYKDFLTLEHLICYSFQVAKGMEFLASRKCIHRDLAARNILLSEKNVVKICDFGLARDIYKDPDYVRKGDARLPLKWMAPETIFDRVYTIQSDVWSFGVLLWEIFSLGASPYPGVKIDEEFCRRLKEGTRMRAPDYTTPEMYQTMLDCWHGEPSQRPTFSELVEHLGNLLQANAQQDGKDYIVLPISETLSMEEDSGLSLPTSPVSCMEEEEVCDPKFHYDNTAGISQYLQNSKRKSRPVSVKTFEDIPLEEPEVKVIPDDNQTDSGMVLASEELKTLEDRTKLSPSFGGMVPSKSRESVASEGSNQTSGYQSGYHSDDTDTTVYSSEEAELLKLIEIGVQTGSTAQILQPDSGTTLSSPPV
From the text: as §1

Data set [4] has as its target FGFR1 (Homo sapiens, UniProt P11362). Briefly: SelectScreen Profiling, Z'-LYTE kinase assay, FGFR1. It is filed as biochemical. Conditions: 1 μM compound, ATP at Km, read-out: FGFR 1 inh % @1 μM.
From the text: as §1

The target in data set [5] is HER2 (Homo sapiens, UniProt P04626). Briefly: SelectScreen Profiling, Z'-LYTE kinase assay, HER2. Conditions: 1 μM compound, ATP at Km, read-out: HER2 inh % @1 μM. Type of data set: biochemical.
HER2, sequence (P04626 23-1255): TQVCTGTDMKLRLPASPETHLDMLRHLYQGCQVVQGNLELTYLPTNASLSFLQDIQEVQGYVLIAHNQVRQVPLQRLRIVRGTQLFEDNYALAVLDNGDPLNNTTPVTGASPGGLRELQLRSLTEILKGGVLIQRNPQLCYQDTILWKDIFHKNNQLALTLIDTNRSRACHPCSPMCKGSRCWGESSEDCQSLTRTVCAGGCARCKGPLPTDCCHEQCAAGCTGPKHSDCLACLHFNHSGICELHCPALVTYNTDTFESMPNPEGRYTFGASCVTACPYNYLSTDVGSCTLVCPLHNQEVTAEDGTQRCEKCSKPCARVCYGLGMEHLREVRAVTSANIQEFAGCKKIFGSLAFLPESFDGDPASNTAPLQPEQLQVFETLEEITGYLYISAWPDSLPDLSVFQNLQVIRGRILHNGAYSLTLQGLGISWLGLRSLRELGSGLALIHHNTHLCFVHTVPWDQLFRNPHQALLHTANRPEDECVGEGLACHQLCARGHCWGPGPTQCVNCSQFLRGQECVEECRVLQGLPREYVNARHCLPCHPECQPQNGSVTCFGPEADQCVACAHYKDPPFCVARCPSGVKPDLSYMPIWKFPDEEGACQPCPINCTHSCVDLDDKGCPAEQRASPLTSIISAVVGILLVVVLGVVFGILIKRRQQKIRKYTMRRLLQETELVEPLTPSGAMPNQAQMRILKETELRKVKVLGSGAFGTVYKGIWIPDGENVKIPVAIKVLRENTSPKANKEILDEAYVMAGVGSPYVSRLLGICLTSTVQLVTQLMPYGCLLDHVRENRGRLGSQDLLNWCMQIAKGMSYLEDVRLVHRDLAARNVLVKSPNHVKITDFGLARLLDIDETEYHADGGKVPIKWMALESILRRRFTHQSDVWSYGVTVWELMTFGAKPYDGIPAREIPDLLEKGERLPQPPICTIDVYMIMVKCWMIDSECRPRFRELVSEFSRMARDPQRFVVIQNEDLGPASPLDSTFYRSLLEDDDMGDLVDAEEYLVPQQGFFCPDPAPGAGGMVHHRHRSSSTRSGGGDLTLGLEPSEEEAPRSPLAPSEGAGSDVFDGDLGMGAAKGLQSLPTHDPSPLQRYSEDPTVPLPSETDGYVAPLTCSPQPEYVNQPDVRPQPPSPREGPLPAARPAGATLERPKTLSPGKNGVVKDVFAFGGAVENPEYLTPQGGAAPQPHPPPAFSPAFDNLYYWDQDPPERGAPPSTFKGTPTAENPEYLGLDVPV
From the text: as §1

Data set [6] deals with HER1 (EGFR) (Homo sapiens, UniProt P00533). Briefly: SelectScreen Profiling, Z'-LYTE kinase assay, HER1 (EGFR). Type of data set: biochemical. Conditions: 1 μM compound, ATP at Km, read-out: HER1 inh % @1 μM.
HER1 (EGFR), sequence (P00533 25-1210): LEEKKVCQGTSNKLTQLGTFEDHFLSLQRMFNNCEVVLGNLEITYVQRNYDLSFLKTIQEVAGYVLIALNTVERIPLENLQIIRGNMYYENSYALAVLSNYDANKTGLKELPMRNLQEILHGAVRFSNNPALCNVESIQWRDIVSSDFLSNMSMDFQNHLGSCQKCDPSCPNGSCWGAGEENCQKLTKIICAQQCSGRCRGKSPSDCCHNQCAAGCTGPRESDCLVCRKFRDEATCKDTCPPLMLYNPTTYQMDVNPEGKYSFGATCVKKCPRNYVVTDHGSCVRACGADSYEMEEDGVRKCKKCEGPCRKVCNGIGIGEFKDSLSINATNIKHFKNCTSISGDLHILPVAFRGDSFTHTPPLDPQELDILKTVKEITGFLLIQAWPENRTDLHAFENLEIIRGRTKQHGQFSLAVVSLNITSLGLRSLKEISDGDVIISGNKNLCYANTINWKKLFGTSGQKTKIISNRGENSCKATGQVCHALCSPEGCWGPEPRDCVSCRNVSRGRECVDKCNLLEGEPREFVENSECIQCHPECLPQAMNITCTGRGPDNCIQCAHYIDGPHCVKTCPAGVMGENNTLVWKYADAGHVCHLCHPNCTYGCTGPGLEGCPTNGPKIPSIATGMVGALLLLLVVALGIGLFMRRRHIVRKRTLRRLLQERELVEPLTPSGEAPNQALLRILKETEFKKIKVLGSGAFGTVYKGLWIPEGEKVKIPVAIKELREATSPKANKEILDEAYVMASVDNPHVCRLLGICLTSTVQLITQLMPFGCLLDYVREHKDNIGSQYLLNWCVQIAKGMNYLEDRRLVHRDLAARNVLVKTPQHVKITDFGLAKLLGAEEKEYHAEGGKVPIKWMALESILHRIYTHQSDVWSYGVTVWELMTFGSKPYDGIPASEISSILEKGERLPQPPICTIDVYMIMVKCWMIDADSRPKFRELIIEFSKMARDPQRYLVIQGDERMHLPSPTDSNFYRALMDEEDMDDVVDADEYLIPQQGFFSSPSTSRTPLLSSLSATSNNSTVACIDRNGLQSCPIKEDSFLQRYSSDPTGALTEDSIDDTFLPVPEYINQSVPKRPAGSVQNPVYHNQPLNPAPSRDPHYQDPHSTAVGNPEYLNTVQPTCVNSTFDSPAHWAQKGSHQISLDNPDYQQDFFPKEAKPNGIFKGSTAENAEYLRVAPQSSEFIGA
From the text: as §1

The subject of data set [7] is mammalian tumor cell lines such as PC-3, LNCAP, U87, Huh-7, HepG2 and MDA-MB-468. Briefly: Cell proliferation/survival MTT assay in tumor cell lines. The following applies: 5 days (120 h) culture; cell line not specified; read-out: IC50, inhibition of tumor cell growth (MTT). Type of data set: cell-based. As to the method:
The cytotoxic or cytostatic activity of Formula I-III exemplary compounds was measured by establishing proliferating mammalian tumor cell lines such as PC-3, LNCAP, U87, Huh-7, HepG2 and MDA-MB-468 in a cell culture medium, adding a test compound, culturing the cells for a period of 5 days by measuring cell viability via MTT assays. Dose response data were obtained for each test compound and the degree of inhibition of tumor cell growth was expressed as an IC50 value. […] For example. For example, compounds of example 14, 15, 46,29, 45, 49, 122, 88, 54, 55, 58, 59, 63, 64, 66, 67, 68, 113, 86, 90.
PC-3 (or U87) cells were seeded in 96-well plates at low density (at 2,000 cells per well) in media supplemented with 10% FBS (growth media) and transferred to serum-free media (1% FBS) after 24 h. Designated concentrations of drug were added to each well. The cells were incubated for 120 h. At the end of drug exposure, 20 μL/well of MTT solution was added. After 4 h at 37° C. in a humidified 5% CO2 atmosphere, the absorbance at 490 nm was recorded by using a microplate reader. IC50 was calculated using GraphPad Prism version 5 for Windows. The curves were fit using a nonlinear regression model with a log (inhibitor) versus response formula.
On the technique in general: Tetrazolium assays rely on reduction of a dye to a coloured formazan, in cell work by metabolically active cells.

Data set [8] in a line: Metabolic stability in human liver microsome (HLM). The following applies: incubation with human liver microsome for 60 min. Type of data set: in vitro ADME. As to the method: (§2) Active mTOR inhibitors in enzymatic and/or cell-based assays herein were evaluated for pharmacokinetic properties. Preferable compounds are with pharmacokinetic properties of low clearance, long half-life and/or good oral bioavailability (Fpo). In vitro, selected example compounds were evaluated for metabolic stability by incubating with human liver microsome (HLM) for 60 min. Compounds that were metabolized slower (i.e. higher % remaining) are preferred. […] The more metabolic stable example compounds in the HLM assay were further evaluated for pharmacokinetic properties in vivo. In a representative experiment, selected example compounds were dosed to rats intravenously (IV, 5 mg/kg, 30% PEG400+30% PG+1% DMSO in saline) and orally (PO, 10 mg/kg, 2.4% DMSO+0.1% Tween80 in 0.5% CMC-Na), rat blood samples were taken at designed time points after dosing and analyzed for tested drug concentrations using LC-MS/MS. Pharmacokinetic parameters were derived from the time curve of drug concentrations.

The nature of data set [9]: Rat pharmacokinetic study (IV and PO). It is filed as in vivo. Conditions: for AUC(0-t) / Cmax / MRT / clearance / half-life / Tmax / bioavailability: blood; for bioavailability: PO 10 mg/kg vs IV 5 mg/kg, read-out: Fpo (oral bioavailability). How it is done: as §2

FGFR1, sequence (P11362 22-822): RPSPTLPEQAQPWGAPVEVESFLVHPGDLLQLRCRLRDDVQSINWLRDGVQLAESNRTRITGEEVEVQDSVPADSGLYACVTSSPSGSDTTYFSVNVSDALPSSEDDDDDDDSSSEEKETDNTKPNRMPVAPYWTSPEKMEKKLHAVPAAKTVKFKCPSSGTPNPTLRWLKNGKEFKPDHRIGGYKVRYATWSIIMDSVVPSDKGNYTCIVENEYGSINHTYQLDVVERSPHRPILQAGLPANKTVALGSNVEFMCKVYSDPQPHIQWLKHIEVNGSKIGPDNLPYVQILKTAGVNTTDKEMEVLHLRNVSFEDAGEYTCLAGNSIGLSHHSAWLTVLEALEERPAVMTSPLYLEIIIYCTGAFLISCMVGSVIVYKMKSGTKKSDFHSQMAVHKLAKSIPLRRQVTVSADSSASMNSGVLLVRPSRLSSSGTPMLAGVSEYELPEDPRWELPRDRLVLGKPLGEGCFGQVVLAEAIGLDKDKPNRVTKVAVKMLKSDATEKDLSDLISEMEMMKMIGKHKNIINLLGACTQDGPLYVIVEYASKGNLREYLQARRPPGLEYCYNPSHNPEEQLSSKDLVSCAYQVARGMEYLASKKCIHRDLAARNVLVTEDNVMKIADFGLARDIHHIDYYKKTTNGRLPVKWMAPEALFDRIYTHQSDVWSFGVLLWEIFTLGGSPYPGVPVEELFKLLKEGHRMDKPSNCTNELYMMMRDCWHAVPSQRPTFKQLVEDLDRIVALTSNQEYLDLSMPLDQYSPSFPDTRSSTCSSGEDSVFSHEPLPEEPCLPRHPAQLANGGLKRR

Turning to `CCNC(=O)Nc1ccc(-c2nc(N3CCOC[C@H]3C)c3cccn3n2)cc1` [Example 4], the results for the inhibition at 0.1 µM in data set [1] and in data set [2] were 10% and 72%, respectively.
As for `C[C@@H]1COCCN1c1nc(-c2ccc(NC(=O)Nc3cccnc3)cc2)nn2cccc12` [Example 17], in [1], the inhibition at 0.1 µM was 25%.
The same measure, in the same setting: the result for `O=C(Nc1ccncc1)Nc1ccc(-c2nc(N3CCOCC3)c3cccn3n2)cc1` [Example 18] reads -13%.
Regarding `O=C(Nc1ccc(-c2nc(N3CCOCC3)c3cccn3n2)cc1)NC1CC1` [Example 38], the inhibition at 0.1 µM was -8% in data set [1] and 69% in [2].
Take `CN(C)CCCNC(=O)c1ccc(NC(=O)Nc2ccc(-c3nc(N4CCOCC4)c4cccn4n3)cc2)cc1` [Example 47]: the inhibition at 1 µM in data set [3] is 10%; in data set [4] it was 6%; in [5] it was -5%; in data set [6] it was 1%. Further, the inhibition at 0.1 µM in [2] came to 89%.
Turning to `O=C(Nc1ccc(C(=O)NCCN2CCOCC2)cc1)Nc1ccc(-c2nc(N3CCOCC3)c3cccn3n2)cc1` [Example 48], the inhibition at 0.1 µM in [1] was -15%; in data set [2], 69%.
Consider `CN1CCN(CCNC(=O)c2ccc(NC(=O)Nc3ccc(-c4nc(N5CCOCC5)c5cccn5n4)cc3)cc2)CC1` [Example 49], for which, in data set [2], the inhibition at 0.1 µM was 88%. Also, in data set [7], the IC50 – broadly, the concentration needed to halve the response being measured – was under 500 nM.
Consider `C[C@@H](CO)NC(=O)Nc1ccc(-c2nc(N3CCOCC3)c3cccn3n2)cc1` [Example 52], for which the inhibition at 0.1 µM in [1] came to 6%; in data set [2], 74%.
On to `O=C(Nc1ccc(C(=O)N2CC(O)C2)cc1)Nc1ccc(-c2nc(N3CCOCC3)c3cccn3n2)cc1` [Example 54], for which the inhibition at 1 µM in data set [3] is 7%; in [4], -4%; in [5], 4%; in data set [6] it was -1%. Moreover, in data set [2], the inhibition at 0.1 µM is 95%. Moreover, the IC50 in data set [7] was under 500 nM.
`O=C(Nc1ccc(C(=O)N2CCNCC2)cc1)Nc1ccc(-c2nc(N3CCOCC3)c3cccn3n2)cc1` [Example 56]: the “metabolic stability in HLM” value in data set [8] was “metabolically stable”. Further, in [2], the inhibition at 0.1 µM amounted to 88%.
Take `CNC(=O)c1ccc(NC(=O)Nc2ccc(-c3nc(N4CCOCC4)c4cccn4n3)cc2)cc1F` [Example 61]: the inhibition at 0.1 µM in [2] amounted to 71%.
`O=C(Nc1ccc(-c2nc(N3CCOCC3)c3ccc(C(F)(F)F)n3n2)cc1)Nc1cccnc1` [Example 62]: the figures for the inhibition at 0.1 µM in data set [1] and in data set [2] were 10% and 53%, respectively.
Turning to `CC(C)(O)c1ccc2c(N3CCOCC3)nc(-c3ccc(NC(=O)Nc4cccnc4)cc3)nn12` [Example 63], the inhibition at 0.1 µM in data set [2] came out at 71%. In [7], the IC50 is under 500 nM.
Take `CN(C)C1CCN(C(=O)c2ccc(NC(=O)Nc3ccc(-c4nc(N5CCOCC5)c5ccc(C(F)(F)F)n5n4)cc3)cc2)CC1` [Example 64]: in [8], the “metabolic stability in HLM” value is “metabolically stable”. Moreover, in [2], the inhibition at 0.1 µM came to 62%. Further, the IC50 in data set [7] is under 500 nM.
As to `CN1CCN(C(=O)c2ccc(NC(=O)Nc3ccc(-c4nc(N5CCOCC5)c5ccc(C(F)(F)F)n5n4)cc3)cc2)CC1` [Example 65], the results for the inhibition at 0.1 µM in [1] and in data set [2] were 19% and 63%, respectively.
As to `O=C(Nc1ccc(C(=O)N2CC[C@@H](O)C2)cc1)Nc1ccc(-c2nc(N3CCOCC3)c3cccn3n2)cc1` [Example 67], the “metabolic stability in HLM” value in data set [8] is on record as “metabolically stable”. Besides, the inhibition at 0.1 µM in data set [2] turned out to be 87%. The IC50 in data set [7] was under 500 nM.
For `O=C(Nc1ccc(C(=O)N2CC[C@H](O)C2)cc1)Nc1ccc(-c2nc(N3CCOCC3)c3cccn3n2)cc1` [Example 68], the inhibition at 0.1 µM in data set [2] amounted to 86%. Moreover, the IC50 in data set [7] was under 500 nM.
The like results for `CN(C)C1CN(C(=O)c2ccc(NC(=O)Nc3ccc(-c4nc(N5CCOCC5)c5cccn5n4)cc3)cc2)C1` [Example 86] were, in that order, 82% and under 500 nM.
As for `C[C@@H]1COCCN1c1nc(-c2ccc(NC(=O)Nc3ccc(C(=O)N4CC[C@@H](O)C4)cc3)cc2)nn2cccc12` [Example 88], the IC50 in data set [7] is under 500 nM.
`C[C@@H]1COCCN1c1nc(-c2ccc(NC(=O)Nc3ccc(C(=O)N4CC[C@H](O)C4)cc3)cc2)nn2cccc12` [Example 89]: in [8], the “metabolic stability in HLM” value was “metabolically stable”.
Consider `CN(C)C1CCN(C(=O)c2ccc(NC(=O)Nc3ccc(-c4nc(N5CCOCC5)c5ccc(C(C)(C)O)n5n4)cc3)cc2)CC1` [Example 90], for which the concentration for half-maximal inhibition (IC50) in data set [7] is under 500 nM.
For `O=C(Nc1ccc(-c2nc(N3CCOCC3)c3cccn3n2)cc1)Nc1ccc(CO)nc1` [Example 96], the “metabolic stability in HLM” value in data set [8] is “metabolically stable”.
Take `S=C(Nc1ccc(-c2nc(N3CCOCC3)c3cccn3n2)cc1)Nc1cccnc1` [Example 106]: in data set [8], the “metabolic stability in HLM” value is listed as “metabolically stable”. Also, in data set [9] (PO 10 mg/kg), the CL was 4.12 mL/min/kg; the AUC(0-t) – broadly, exposure summed from dosing to a finite time, without extrapolation to infinity – was 73400 ng·h/mL; the peak level (Cmax) was 9990 ng/mL; the MRT (as a rule, the average time that molecules of a dose stay in the body) was found to be 5.68 h. Moreover, in [9] (PO 10 mg/kg), the Tmax (commonly the time at which the peak concentration occurs) came out at 2.5 h and the half-life – broadly, the time in which the quantity being followed falls by half – was 3.26 h. Moreover, in data set [9] (IV 5 mg/kg), the AUC(0-t) came out at 41500 ng·h/mL, the highest level (Cmax) was 21200 ng/mL, the mean residence time (MRT) came out at 1.67 h and the clearance is 2.03 mL/min/kg. In addition, the half-life in data set [9] (IV 5 mg/kg) was 1.42 h. Besides, in data set [9], the bioavailability (usually dose-corrected exposure relative to a reference, in per cent) came to 89%.
For the compound `OCCNC(=S)Nc1ccc(-c2nc(N3CCOCC3)c3cccn3n2)cc1` [Example 113], the IC50 in [7] was under 500 nM.
On to `O=C(NCCO)Nc1ccc(-c2nc(N3C[C@H]4CC[C@@H](C3)O4)c3cccn3n2)cc1` [Example 127], for which the “metabolic stability in HLM” value in data set [8] is listed as “metabolically stable”. For the same compound, in data set [9] (PO 10 mg/kg), the CL turned out to be 112.9 mL/min/kg; the AUC(0-t) worked out at 1400 ng·h/mL; the Cmax (as a rule, the maximum level reached in the sampled fluid or tissue) is 296 ng/mL; the MRT was 5.11 h. In [9] (PO 10 mg/kg), the Tmax is 0.417 h and the half-life is 3.29 h. Moreover, in data set [9] (IV 5 mg/kg), the AUC(0-t) is 3420 ng·h/mL, the Cmax turned out to be 3380 ng/mL, the MRT came out at 1.3 h and the clearance is 24.4 mL/min/kg. For the same compound, the half-life in [9] (IV 5 mg/kg) is 1.47 h. For the same compound, the bioavailability in [9] came out at 22%.
Turning to `CC(C)(C)C(=O)OCCNC(=O)Nc1ccc(-c2nc(N3CCOCC3)c3cccn3n2)cc1` [Example 128], in [9] (PO 10 mg/kg), the CL worked out at 25.05 mL/min/kg, the exposure AUC(0-t) was found to be 7290 ng·h/mL, the Cmax turned out to be 1520 ng/mL and the MRT came out at 3.45 h. Further, in [9] (PO 10 mg/kg), the Tmax stood at 1.67 h and the half-life is 1.9 h. Also, the bioavailability in data set [9] worked out at 22%.
`CC(C)(C)C(=O)OCCNC(=O)Nc1ccc(-c2nc(N3C[C@H]4CC[C@@H](C3)O4)c3cccn3n2)cc1` [Example 133]: the inhibition at 1 µM in data set [3] amounted to 9%; in data set [4], 4%; in data set [5], 5%; in [6], 1%. Moreover, the inhibition at 0.1 µM in data set [2] is 90%.
With `CS(=O)(=O)N1CCN(Cc2cc3nc(-c4cccc5[nH]ncc45)nc(N4CCOCC4)c3s2)CC1` [GDC0941, reference compound], the inhibition at 0.1 µM in data set [2] was found to be 6%.
